Data set [1] is described as follows: Example 1 (NB-233): single-dose crossover food-effect study of NB 8/90 trilayer tablets, plasma pharmacokinetics. The note with it: for increase in Cmax: high-fat conditions compared to fasted conditions; for Cmax between high-fat and fasted conditions (in words): 90% CIs within 80% to 125% range.
Data set [2] in a line: Example 2 (NB-236): steady-state food-effect extension study of NB 8/90 tablets, plasma pharmacokinetics. The method, then:
A phase I, open label, steady-state study was performed to assess the plasma pharmacokinetics of NB tablets under fed and fasted conditions. An extension of the study allowed for the evaluation of the effect of food on the pharmacokinetics of NB tablets.
Days 1-31 of the study were devoted to the primary investigation of metoprolol pharmacokinetics in the context of steady-state dosing with NB tablets. Subjects (n=18) received a metoprolol 50 mg IR tablet on Days 1 and 31. NB was dose escalated every week from a single NB 8/90 tablet per day on Day 3 to a maximum dose of NB 32/360 (two NB 8/90 tablets BID) starting on Day 24. In the clinic setting (Days 1-3 and 27-31), standardized meals were provided before dosing and pharmacokinetic sampling. These meals were moderate in fat and caloric content. Subjects were instructed to take study medication with food during the outpatient (Days 4-26) phase of the study.
Subjects enrolling in the optional extension continued BID dosing administration (with moderate meals) through Day 32. […] The evening dose on Day 33, study medication was given with food (“moderate” meal). For Day 34, subjects received their morning dose under the opposite condition from what they received on the morning of Day 33. […] For purposes of studying the effects of food, the comparisons were between Day 30 pharmacokinetics (“moderate” meal) and the fasted and high-fat meal conditions administered on Day 33 and Day 34.

The conditions of data set [3]: in vivo.
Data set [4] in a line: clinical. The note with it: human.
Data set [5] in a line: Example 3 (NB-239 vs NB-237): single dose NB 8/90 tablets, moderate-fat, moderate-calorie meal vs fasted, cross-study comparison. The note with it: for Cmax: single dose two NB 8/90 tablets.
The conditions of data set [6]: human, in vivo.
Data set [7] is described as follows: clinical. The note with it: both, human.
Where [8] appears, read: fed moderate-fat meal, mean ± SD.
The mark [9] stands for this setting: fed moderate-calorie, moderate-fat meal, mean ± SD.
The mark [10] stands for this setting: fed (high-fat meal), arithmetic mean ± SD.

SMILES strings stand for the structures. Like-named read-outs stand apart in the source and are kept apart here.

As to `Oc1ccc2c3c1O[C@H]1[C@H](O)CC[C@@]4(O)[C@@H](C2)N(CC2CC2)CC[C@]314` [6β-naltrexol], in data set [1], the “increase in Cmax” value was determined as 52%. For the same compound, in data set [2] (steady state, two NB 8/90 tablets), the “effect of food (moderate-fat or high-fat meal) on exposure relative to the fasted state (in words)” value is “neither meal type appeared to affect”.
For `CC(NC(C)(C)C)C(=O)c1cccc(Cl)c1` (stereo not shown) [Bupropion, bupropion], the AUC0-t in data set [1] (fasted, arithmetic mean ± SD) is 1550.91 ± 549.08 ng·h/mL; in data set [2] (both, human, in vivo, po), 965 ± 249 ng·h/mL; in data set [5] (fasted, mean ± SD), 1496.01 ± 323.04 ng·h/mL. Further, the “AUC0-t Fed to Fasted % MR” value in data set [3] (both, human) is recorded as 139.50%. The “t1/2 apparent terminal elimination half-life” value in data set [3] (both, human) was found to be 20.44 h. In data set [3], the “apparent terminal elimination t1/2, fed vs fasted conditions (in words)” value is on record as “similar”. Also, the “median Tmax, fed vs fasted conditions (in words)” value in data set [3] is on record as “one hour shorter”. Besides, the Cmin in data set [2] (both, human, in vivo) was determined as 41.6 ± 10.4 ng/mL. Moreover, the Tmax in data set [2] (both, human, in vivo, po, Tmax) was 1.99 h; in the data set “clinical [4]” (in vivo), 2.07 h. For the same compound, the Cmax in data set [2] (steady state, morning dose two NB 8/90 tablets fasted, Day 33 or 34, mean ± SD) is 131 ± 38.2 ng/mL; in data set [2] (steady state, morning dose two NB 8/90 tablets fed high-fat meal, Day 33 or 34, mean ± SD), 167 ± 43.4 ng/mL; in data set [2] (steady state, two NB 8/90 tablets BID, fed moderate meal, Day 30, mean ± SD), 156 ± 52.5 ng/mL; in data set [5] (fasted, mean ± SD), 156 ± 36.9 ng/mL; in data set [5] (setting [9]) it was 154 ± 55.4 ng/mL; in “clinical [7]” (in vivo) it was 161 ± 52.1 ng/mL. Further, the “AUC0-∞” value was determined as 1574.93 ± 346.49 ng·h/mL in data set [5] (fasted, mean ± SD) and 1384.85 ± 330.19 ng·h/mL in data set [5] (setting [8]). Moreover, in data set [5] (fasted, mean ± SD), the t1/2 was determined as 19.83 ± 3.24 h. In data set [6], the “AUC0-t % MR, fed (moderate-fat) to fasted” value was 91.55%. This compound also showed a total exposure AUC(0-inf) in the data set “clinical [7]” (in vivo) of 1620 ± 574 ng·h/mL.
With `O=C1CC[C@@]2(O)[C@H]3Cc4ccc(O)c5c4[C@@]2(CCN3CC2CC2)[C@H]1O5` [Naltrexone, naltrexone], the AUC0-t was 7.98 ± 4.04 ng·h/mL in data set [1] (fasted, arithmetic mean ± SD); 16.42 ± 8.70 ng·h/mL in data set [1] (setting [10]); 7.07 ± 2.88 ng·h/mL in data set [2] (both, human, plasma, po, fasted, Day 33 or 34, mean ± SD); 11.8 ± 4.68 ng·h/mL in data set [2] (both, human, plasma, po, fed high-fat meal, Day 33 or 34, mean ± SD); 11.7 ± 4.45 ng·h/mL in data set [2] (both, human, plasma, po, fed moderate meal, Day 30, mean ± SD); 8.3 ± 6.41 ng·h/mL in the data set “clinical [4]” (plasma, oral). This compound registered an AUC0-t in data set [5] (setting [8]) of 13.41 ± 6.93 ng·h/mL. Moreover, the “AUC0-∞” value in data set [1] (setting [10]) worked out at 16.65 ± 8.70 ng·h/mL; in data set [5] (setting [8]), 13.63 ± 7.15 ng·h/mL. In addition, the Tmax in data set [1] (fed (high-fat meal), median (minimum, maximum)) is 2.00 (0.75, 6.00) hr; in data set [2] (both, human, plasma, po, Tmax, fasted, Day 33 or 34, median (minimum, maximum)), 0.75 h; in data set [2] (both, human, plasma, po, Tmax, fed moderate meal, Day 30, median (minimum, maximum)), 2 h; in data set [2] (fed high-fat meal, Day 33 or 34, median (minimum, maximum)), 3.00 (1.25, 6.00) hr; in “clinical [4]” (plasma, oral) it was 1.27 h; in data set [5] (fed moderate-fat meal, median (minimum, maximum)), 2.00 (0.75, 6.00) hr. The Tmax in “clinical [7]” (plasma, oral) was 2 h. In addition, the “median Tmax, fed vs fasted conditions (in words)” value in data set [1] (fed vs fasted) is reported as “similar”. Further, the “AUC0-t Fed to Fasted % MR” value in data set [1] (high-fat fed vs fasted) was 211.50%. For the same compound, the Cmax was found to be 4.00 ± 2.52 ng/mL in data set [1] (plasma, single dose two NB 8/90 tablets, fed (high-fat meal), arithmetic mean ± SD); 1.47 ± 0.71 ng/mL in data set [2] (both, human, plasma, po, Cmax, steady state, morning dose two NB 8/90 tablets fasted, Day 33 or 34, mean ± SD); 2.84 ± 1.53 ng/mL in data set [2] (both, human, plasma, po, Cmax, steady state, morning dose two NB 8/90 tablets fed high-fat meal, Day 33 or 34, mean ± SD); 2.6 ± 1.02 ng/mL in data set [2] (both, human, plasma, po, Cmax, steady state, two NB 8/90 tablets BID, fed moderate meal, Day 30, mean ± SD); 1.34 ± 0.763 ng/mL in “clinical [4]” (plasma, oral); 2.65 ± 1.18 ng/mL in data set [5] (setting [9]). For the same compound, the Cmin in data set [2] (fasted, Day 33 or 34, mean ± SD) was determined as 0.172 ± 0.0758 ng/mL; in data set [2] (fed high-fat meal, Day 33 or 34, mean ± SD) it was 0.159 ± 0.0895 ng/mL; in data set [2] (fed moderate meal, Day 30, mean ± SD) it was 0.195 ± 0.105 ng/mL. In addition, the “lower Cmin versus the fasted condition” value in data set [2] (high-fat, high-calorie meal) is listed as 12%. Also, the “higher Cmin versus the fasted condition” value in data set [2] (moderate-fat, moderate-calorie meal) was 10%. Moreover, the “Cmin % MR, high-fat fed to fasted” value in data set [2] (steady state) stood at 88.39%. Moreover, the “Cmin % MR, high-fat to moderate-fat” value in data set [2] (steady state) was found to be 80.15%. Besides, the “Cmin % MR, moderate-fat fed to fasted” value in data set [2] (steady state) was found to be 110.04%. Also, the “effect of changing meal from moderate-fat, moderate-calorie to high-fat, high-calorie (in words)” value in data set [2] (steady state, morning dose) is listed as “no effect”. Further, the AUC(0-inf) is 8.55 ± 6.46 ng·h/mL in “clinical [4]” (plasma, oral) and 8.39 ± 4.26 ng·h/mL in the data set “clinical [7]” (plasma, oral).
As to `CC(NC(C)(C)C)C(O)c1cccc(Cl)c1` (stereo not shown) [erythrohydrobupropion], the “Cmax between high-fat and fasted conditions (in words)” value in data set [1] is “comparable”.
On the same count and under the same terms, the value for `C[C@H]1NC(C)(C)CO[C@]1(O)c1cccc(Cl)c1` [hydroxybupropion] was “comparable”.
Consider `C[C@H](NC(C)(C)C)[C@@H](O)c1cccc(Cl)c1` [threohydrobupropion], for which the “increase in Cmax” value in data set [1] is recorded as 26%.

These data come from US20220088007A1 (priority 2010, published 2022).
